Like-named read-outs stand apart in the source and are kept apart here.
Assays:
HIV-1 (IIIB) = assay: microbe, parasite or virus in culture; format: cell-based; settings: Human immunodeficiency virus 1, IIIB, MT4, 120 h, read-out: MT4 EC50
in vitro = settings: human; for CC50 at 5 days: uninfected MT-4 cells
pLAI reporter virus = assay: microbe, parasite or virus in culture; format: cell-based, HIV; settings: Human immunodeficiency virus 1, MT4, 72 h
[1] = HIV-1 (IIIB) in MT-4 cells, 5 days incubation, Cell Titer Glo

COC[C@@H]1CO[C@@]2(CC[C@H](C)N3C[C@H]2n2cc(C(=O)NCc4c(F)cc(F)cc4F)c(=O)c(O)c2C3=O)O1 (single isomer, unassigned) [168 (peak 1)]
EC50 (HIV-1 (IIIB); [1]): 1.1 nM
CC50 at 5 days (in vitro): 28900 nM
EC50 (pLAI reporter virus; read-out: RLUC 50% HS EC50): 2 nM
EC50 (pLAI reporter virus; read-out: RLUC CCM EC50): 0.4 nM

COC[C@@H]1CO[C@]2(CC[C@H](C)N3C[C@H]2n2cc(C(=O)NCc4c(F)cc(F)cc4F)c(=O)c(O)c2C3=O)O1 (single isomer, unassigned) [168 (peak 2)]
EC50 (HIV-1 (IIIB); [1]): 2 nM
CC50 at 5 days (in vitro): 37000 nM
EC50 (pLAI reporter virus; read-out: RLUC 50% HS EC50): 16.4 nM
EC50 (pLAI reporter virus; read-out: RLUC CCM EC50): 0.6 nM

C[C@H]1CC[C@@]2(OC[C@@H](Cc3ccccc3)O2)[C@H]2CN1C(=O)c1c(O)c(=O)c(C(=O)NCc3c(F)cc(F)cc3F)cn12 (single isomer, unassigned) [169 (peak 1)]
EC50 (HIV-1 (IIIB); [1]): 4.9 nM
CC50 at 5 days (in vitro): 39000 nM
EC50 (pLAI reporter virus; read-out: RLUC 50% HS EC50): 10 nM
EC50 (pLAI reporter virus; read-out: RLUC CCM EC50): 1.4 nM

C[C@H]1CC[C@]2(OC[C@@H](Cc3ccccc3)O2)[C@H]2CN1C(=O)c1c(O)c(=O)c(C(=O)NCc3c(F)cc(F)cc3F)cn12 (single isomer, unassigned) [169 (peak 2)]
EC50 (HIV-1 (IIIB); [1]): 4.3 nM
CC50 at 5 days (in vitro): 45100 nM
EC50 (pLAI reporter virus; read-out: RLUC 50% HS EC50): 4 nM
EC50 (pLAI reporter virus; read-out: RLUC CCM EC50): 2 nM

CO[C@H]1CS[C@]2(CC[C@H](C)N3C[C@H]2n2cc(C(=O)NCc4c(F)cc(F)cc4F)c(=O)c(O)c2C3=O)O1 (single isomer, unassigned) [170 (peak 1)]
EC50 (HIV-1 (IIIB); [1]): 1.3 nM
CC50 at 5 days (in vitro): 42000 nM
EC50 (pLAI reporter virus; read-out: RLUC 50% HS EC50): 5 nM
EC50 (pLAI reporter virus; read-out: RLUC CCM EC50): 0.3 nM

CO[C@@H]1CS[C@]2(CC[C@H](C)N3C[C@H]2n2cc(C(=O)NCc4c(F)cc(F)cc4F)c(=O)c(O)c2C3=O)O1 (single isomer, unassigned) [170 (peak 2)]
EC50 (HIV-1 (IIIB); [1]): 1.7 nM
CC50 at 5 days (in vitro): 42600 nM
EC50 (pLAI reporter virus; read-out: RLUC 50% HS EC50): 2.6 nM
EC50 (pLAI reporter virus; read-out: RLUC CCM EC50): 0.2 nM

CO[C@H]1CS[C@@]2(CC[C@H](C)N3C[C@H]2n2cc(C(=O)NCc4c(F)cc(F)cc4F)c(=O)c(O)c2C3=O)O1 (single isomer, unassigned) [170 (peak 3)]
EC50 (HIV-1 (IIIB); [1]): 1.2 nM
CC50 at 5 days (in vitro): 8240 nM
EC50 (pLAI reporter virus; read-out: RLUC 50% HS EC50): 43.4 nM
EC50 (pLAI reporter virus; read-out: RLUC CCM EC50): 0.3 nM

CO[C@@H]1CS[C@@]2(CC[C@H](C)N3C[C@H]2n2cc(C(=O)NCc4c(F)cc(F)cc4F)c(=O)c(O)c2C3=O)O1 (single isomer, unassigned) [170 (peak 4)]
EC50 (HIV-1 (IIIB); [1]): 1.7 nM
CC50 at 5 days (in vitro): 33100 nM
EC50 (pLAI reporter virus; read-out: RLUC 50% HS EC50): 14.5 nM
EC50 (pLAI reporter virus; read-out: RLUC CCM EC50): 0.3 nM

CC1=NO[C@@]2(CC[C@H](C)N3C[C@H]2n2cc(C(=O)NCc4ccc(F)cc4F)c(=O)c(O)c2C3=O)[C@H]1F (single isomer, unassigned) [Example 27 (peak 1)]
EC50 (HIV-1 (IIIB); [1]): 1.3 nM
CC50 at 5 days (in vitro): 33100 nM
EC50 (pLAI reporter virus; read-out: RLUC 50% HS EC50): 175 nM
EC50 (pLAI reporter virus; read-out: RLUC CCM EC50): 0.2 nM

CC1=NO[C@@]2(CC[C@H](C)N3C[C@H]2n2cc(C(=O)NCc4ccc(F)cc4F)c(=O)c(O)c2C3=O)[C@@H]1F (single isomer, unassigned) [Example 27 (peak 2)]
EC50 (HIV-1 (IIIB); [1]): 0.6 nM
CC50 at 5 days (in vitro): 45600 nM
EC50 (pLAI reporter virus; read-out: RLUC 50% HS EC50): 160 nM
EC50 (pLAI reporter virus; read-out: RLUC CCM EC50): 0.3 nM

C[C@H]1CC[C@]2(CC(=O)N(Cc3ccc(F)cc3)O2)[C@H]2CN1C(=O)c1c(O)c(=O)c(C(=O)NCc3c(F)cc(F)cc3F)cn12 (single isomer, unassigned) [Example 115]
EC50 (HIV-1 (IIIB); [1]): 1.2 nM
CC50 at 5 days (in vitro): ≥ 50000 nM
EC50 (pLAI reporter virus; read-out: RLUC 50% HS EC50): 5.1 nM
EC50 (pLAI reporter virus; read-out: RLUC CCM EC50): 0.3 nM

CC1=NO[C@]2(CC[C@H](C)N3C[C@H]2n2cc(C(=O)NCc4ccc(F)cc4F)c(=O)c(O)c2C3=O)C1 [Example 2, (3′S,5R,7′R)—N-(2,4-difluorobenzyl)-12′-hydroxy-3,3′-dimethyl-1′,11′-dioxo-1′,4′,5′,11′-tetrahydro-3′H,4H,7′H-spiro[isoxazole-5,6′-[2,7]methanopyrido[1,2-a][1,4]diazonine]-10′-carboxamide]
EC50 (HIV-1 (IIIB); [1]): 11.2 nM
CC50 at 5 days (in vitro): ≥ 50000 nM
EC50 (pLAI reporter virus; read-out: RLUC 50% HS EC50): 9.2 nM
EC50 (pLAI reporter virus; read-out: RLUC CCM EC50): 2.6 nM

CC1=NO[C@@]2(CC[C@H](C)N3C[C@H]2n2cc(C(=O)NCc4c(F)cc(F)cc4F)c(=O)c(O)c2C3=O)C1 [Example 3, (3′S,5S,7′R)-12′-hydroxy-3,3′-dimethyl-1′,11′-dioxo-N-(2,4,6-trifluorobenzyl)-1′,4′,5′,11′-tetrahydro-3′H,4H,7′H-spiro[isoxazole-5,6′-[2,7]methanopyrido[1,2-a][1,4]diazonine]-10′-carboxamide]
EC50 (HIV-1 (IIIB); [1]): 0.9 nM
CC50 at 5 days (in vitro): 20100 nM
EC50 (pLAI reporter virus; read-out: RLUC 50% HS EC50): 71.2 nM
EC50 (pLAI reporter virus; read-out: RLUC CCM EC50): 0.2 nM

CC1=NO[C@]2(CC[C@H](C)N3C[C@H]2n2cc(C(=O)NCc4c(F)cc(F)cc4F)c(=O)c(O)c2C3=O)C1 [Example 4, (3′S,5R,7′R)-12′-hydroxy-3,3′-dimethyl-1′,11′-dioxo-N-(2,4,6-trifluorobenzyl)-1′,4′,5′,11′-tetrahydro-3′H,4H,7′H-spiro[isoxazole-5,6′-[2,7]methanopyrido[1,2-a][1,4]diazonine]-10′-carboxamide]
EC50 (HIV-1 (IIIB); [1]): 5.7 nM
CC50 at 5 days (in vitro): ≥ 50000 nM
EC50 (pLAI reporter virus; read-out: RLUC 50% HS EC50): 4.6 nM
EC50 (pLAI reporter virus; read-out: RLUC CCM EC50): 3 nM

COCC1=NO[C@@]2(CC[C@H](C)N3C[C@H]2n2cc(C(=O)NCc4ccc(F)cc4F)c(=O)c(O)c2C3=O)C1 [Example 22, (3′S,5S,7′R)—N-(2,4-difluorobenzyl)-12′-hydroxy-3-(methoxymethyl)-3′-methyl-1′,11′-dioxo-1′,4′,5′,11′-tetrahydro-3′H,4H,7′H-spiro[isoxazole-5,6′-[2,7]methanopyrido[1,2-a][1,4]diazonine]-10′-carboxamide]
EC50 (HIV-1 (IIIB); [1]): 1.3 nM
CC50 at 5 days (in vitro): 23700 nM

C[C@H]1CC[C@]2(CNC(=O)C2)[C@H]2CN1C(=O)c1c(O)c(=O)c(C(=O)NCc3c(F)cc(F)cc3F)cn12 [Example 58, (3S,3′S,7′S)-12′-hydroxy-3′-methyl-1′,5,11′-trioxo-N-(2,4,6-trifluorobenzyl)-1′,4′,5′,11′-tetrahydro-3′H,7′H-spiro[pyrrolidine-3,6′-[2,7]methanopyrido[1,2-a][1,4]diazonine]-10′-carboxamide]
EC50 (HIV-1 (IIIB); [1]): 77.4 nM
CC50 at 5 days (in vitro): ≥ 50000 nM

C[C@H]1CC[C@@]2(CNC(=O)O2)[C@H]2CN1C(=O)c1c(O)c(=O)c(C(=O)NCc3c(F)cc(F)cc3F)cn12 [Example 59, (3′S,5R,7′R)-12′-hydroxy-3′-methyl-1′,2,11′-trioxo-N-(2,4,6-trifluorobenzyl)-1′,4′,5′,11′-tetrahydro-3′H,7′H-spiro[oxazolidine-5,6′-[2,7]methanopyrido[1,2-a][1,4]diazonine]-10′-carboxamide]
EC50 (HIV-1 (IIIB); [1]): 51.4 nM
CC50 at 5 days (in vitro): ≥ 50000 nM

CC1=NOC2(CC[C@H](C)N3C[C@H]2n2cc(C(=O)NCc4ccc(F)cc4F)c(=O)c(O)c2C3=O)N1N(C)C (stereo partly drawn) [Example 95, (3′S,7′R)—N-(2,4-difluorobenzyl)-4-(dimethylamino)-12′-hydroxy-3,3′-dimethyl-1′,11′-dioxo-1′,4′,5′,11′-tetrahydro-3′H,4H,7′H-spiro[[1,2,4]oxadiazole-5,6′-[2,7]methanopyrido[1,2-a][1,4]diazonine]-10′-carboxamide]
EC50 (HIV-1 (IIIB)): 0.6 nM
CC50 (in vitro): 24100 nM

C[C@H]1OC[C@]2(CC[C@H](C)N3C[C@H]2n2cc(C(=O)NCc4c(F)cc(F)cc4F)c(=O)c(O)c2C3=O)O1 [Example 132, (2S,3′S,4R,7′R)-12′-hydroxy-2,3′-dimethyl-1′,11′-dioxo-N-(2,4,6-trifluorobenzyl)-1′,4′,5′,11′-tetrahydro-3′H,7′H-spiro[[1,3]dioxolane-4,6′-[2,7]methanopyrido[1,2-a][1,4]diazonine]-10′-carboxamide]
EC50 (HIV-1 (IIIB); [1]): 1.4 nM
CC50 at 5 days (in vitro): 30300 nM

CC1=NO[C@@]2(CC[C@H](C)N3C[C@H]2n2cc(C(=O)NCc4c(F)cc(F)cc4F)c(=O)c(O)c2C3=O)S1 [Example 146, (3′S,5S,7′R)-12′-hydroxy-3,3′-dimethyl-1′,11′-dioxo-N-(2,4,6-trifluorobenzyl)-1′,4′,5′,11′-tetrahydro-3′H,7′H-spiro[[1,4,2]oxathiazole-5,6′-[2,7]methanopyrido[1,2-a][1,4]diazonine]-10′-carboxamide]
EC50 (HIV-1 (IIIB)): 1.3 nM
CC50 (in vitro): 16900 nM

CC1=NO[C@@]2(CC[C@H](C)N3C[C@H]2n2cc(C(=O)NCc4ncc(F)c(Cl)c4F)c(=O)c(O)c2C3=O)C1 [Example 150, (3′S,5S,7′R)—N-((4-chloro-3,5-difluoropyridin-2-yl)methyl)-12′-hydroxy-3,3′-dimethyl-1′,11′-dioxo-1′,4′,5′,11′-tetrahydro-3′H,4H,7′H-spiro[isoxazole-5,6′-[2,7]methanopyrido[1,2-a][1,4]diazonine]-10′-carboxamide]
EC50 (HIV-1 (IIIB)): 2.1 nM
CC50 at 5 days (in vitro): 27000 nM

CC1=NO[C@@]2(CC[C@H](C)N3C[C@H]2n2cc(-c4nnc(Cc5c(F)cc(F)cc5F)s4)c(=O)c(O)c2C3=O)C1 [Example 152, (3′S,5S,7′R)-12′-hydroxy-3,3′-dimethyl-10′-(5-(2,4,6-trifluorobenzyl)-1,3,4-thiadiazol-2-yl)-4′,5′-dihydro-3′H,4H,7′H-spiro[isoxazole-5,6′-[2,7]methanopyrido[1,2-a][1,4]diazonine]-1′,11′-dione]
EC50 (HIV-1 (IIIB)): 4.2 nM
CC50 at 5 days (in vitro): 14200 nM

CCn1c(CN2O[C@@]3(CC[C@H](C)N4C[C@H]3n3cc(C(=O)NCc5c(F)cc(F)cc5F)c(=O)c(O)c3C4=O)CC2=O)nc2ccccc21 [Example 164, (3′S,5S,7′R)-2-((1-ethyl-1H-benzo[d]imidazol-2-yl)methyl)-12′-hydroxy-3′-methyl-1′,3,11′-trioxo-N-(2,4,6-trifluorobenzyl)-1′,4′,5′,11′-tetrahydro-3′H,7′H-spiro[isoxazolidine-5,6′-[2,7]methanopyrido[1,2-a][1,4]diazonine]-10′-carboxamide]
EC50 (HIV-1 (IIIB); [1]): 3 nM
CC50 at 5 days (in vitro): 45700 nM
